Experiment: xn = mol fraction of the nth substance listed
Details: Liquid, Vibrating tube method

CCCCCCCO [heptan-1-ol] + CCCCOCCCC
mass density [kg/m3]
Details	x2 = 0	x2 = 0.1488	x2 = 0.3201	x2 = 0.4944	x2 = 0.7014	x2 = 0.8534
333.15 K, 140000 kPa	–	857.7	850.3	843.3	834.8	829
353.15 K, 100 kPa	778.1	768	756.6	745.6	732.4	723.4
353.15 K, 1000 kPa	778.8	768.8	757.4	746.6	733.4	724.5
353.15 K, 5000 kPa	782.3	772.5	761.4	750.8	738	729.4
353.15 K, 10000 kPa	786.3	776.8	766	755.8	743.3	735
353.15 K, 15000 kPa	790.2	781	770.4	760.4	748.4	740.3
353.15 K, 20000 kPa	793.9	784.8	774.5	764.8	753.1	745.2
353.15 K, 25000 kPa	797.3	788.5	778.4	768.9	757.4	749.8
353.15 K, 30000 kPa	800.7	792.1	782.3	772.9	761.7	754.1
353.15 K, 35000 kPa	804	795.5	785.8	776.7	765.6	758.3
353.15 K, 40000 kPa	807.1	798.6	789.2	780.1	769.4	762.1
353.15 K, 45000 kPa	810	801.8	792.5	783.7	773	765.9
353.15 K, 50000 kPa	813	804.9	795.8	787.1	776.7	769.6
353.15 K, 55000 kPa	815.8	807.8	798.8	790.2	779.9	773.1
353.15 K, 60000 kPa	818.6	810.7	801.8	793.3	783.2	776.5
353.15 K, 65000 kPa	821.2	813.5	804.7	796.4	786.3	779.7
353.15 K, 70000 kPa	823.8	816.2	807.5	799.3	789.5	782.9
353.15 K, 80000 kPa	828.7	821.2	812.8	804.8	795.2	788.8
353.15 K, 90000 kPa	833.5	826.2	817.9	810.1	800.7	794.4
353.15 K, 100000 kPa	837.9	830.8	822.7	815.1	805.9	799.8
353.15 K, 110000 kPa	842.3	835.3	827.4	819.9	810.9	804.9
353.15 K, 120000 kPa	846.4	839.5	831.8	824.4	815.6	809.7
353.15 K, 130000 kPa	850.3	843.7	836	828.7	820.1	814.2
353.15 K, 140000 kPa	854.3	847.6	840.1	833	824.5	818.7
373.15 K, 100 kPa	761.9	–	–	–	–	–
373.15 K, 1000 kPa	762.8	752.3	740.4	729.1	715.4	706.3
373.15 K, 5000 kPa	766.6	756.5	744.8	733.9	720.7	711.9
373.15 K, 10000 kPa	771.1	761.3	750	739.6	726.7	718.3
373.15 K, 15000 kPa	775.5	765.9	754.9	744.8	732.4	724.2
373.15 K, 20000 kPa	779.5	770.2	759.5	749.6	737.6	729.7
373.15 K, 25000 kPa	783.4	774.3	763.9	754.3	742.5	734.8
373.15 K, 30000 kPa	787.1	778.1	768	758.6	747.2	739.6
373.15 K, 35000 kPa	790.6	781.9	772	762.7	751.6	744.1
373.15 K, 40000 kPa	794	785.4	775.7	766.7	755.7	748.5
373.15 K, 45000 kPa	797.2	788.9	779.3	770.5	759.7	752.7
373.15 K, 50000 kPa	800.3	792.1	782.7	774	763.4	756.5
373.15 K, 55000 kPa	803.4	795.2	786	777.5	767.1	760.3
373.15 K, 60000 kPa	806.3	798.3	789.2	780.8	770.6	763.9
373.15 K, 65000 kPa	809.2	801.3	792.3	784	774	767.4
373.15 K, 70000 kPa	811.9	804.1	795.3	787.1	777.2	770.6
373.15 K, 80000 kPa	817.2	809.7	801.1	793.1	783.5	777.1
373.15 K, 90000 kPa	822.3	814.9	806.5	798.7	789.3	783.1
373.15 K, 100000 kPa	827	819.8	811.5	803.9	794.8	788.7
373.15 K, 110000 kPa	831.6	824.5	816.5	809.1	800	794
373.15 K, 120000 kPa	835.9	829	821.1	813.8	805	799.1
373.15 K, 130000 kPa	840.2	833.4	825.6	818.4	809.8	803.9
373.15 K, 140000 kPa	844.1	837.4	829.8	822.8	814.3	808.6
393.15 K, 100 kPa	744.9	–	–	–	–	–
393.15 K, 1000 kPa	745.8	734.9	722.5	710.7	696.6	687.4
393.15 K, 5000 kPa	750.2	739.7	727.6	716.3	702.7	693.9
393.15 K, 10000 kPa	755.3	745.1	733.5	722.7	709.7	701.2
393.15 K, 15000 kPa	760.1	750.3	739	728.6	716	708
393.15 K, 20000 kPa	764.6	755.1	744.2	734	721.9	714
393.15 K, 25000 kPa	768.8	759.6	749	739.1	727.4	719.7
393.15 K, 30000 kPa	772.9	763.8	753.5	743.9	732.4	725
393.15 K, 35000 kPa	776.8	767.9	757.8	748.5	737.3	730
393.15 K, 40000 kPa	780.4	771.8	761.9	752.7	741.8	734.8
393.15 K, 45000 kPa	783.9	775.4	765.8	756.8	746	739.1
393.15 K, 50000 kPa	787.3	779	769.4	760.7	750.1	743.4
393.15 K, 55000 kPa	790.7	782.5	773.2	764.5	754.2	747.5
393.15 K, 60000 kPa	793.8	785.7	776.5	768	757.9	751.3
393.15 K, 65000 kPa	796.8	788.9	779.8	771.4	761.5	755
393.15 K, 70000 kPa	799.8	792	783.1	774.9	765	758.7
393.15 K, 80000 kPa	805.5	797.8	789.2	781.2	771.6	765.4
393.15 K, 90000 kPa	810.9	803.5	795	787.2	777.9	771.8
393.15 K, 100000 kPa	815.9	808.6	800.4	792.8	783.6	777.7
393.15 K, 110000 kPa	820.8	813.7	805.6	798.2	789.3	783.5
393.15 K, 120000 kPa	825.3	818.3	810.4	803.1	794.3	788.7
393.15 K, 130000 kPa	829.8	822.9	815.1	808	799.4	793.8
393.15 K, 140000 kPa	834	827.3	819.7	812.7	804.2	798.7
